# Source: patent publication US4105668A, “Process for 6-amino-2,2-dimethyl-3-(5-tetrazolyl)penam” (Pfizer Inc., priority 1977, dated 1978)
# Assays:
# Escherichia coli [1] = experiment: In vitro antibacterial activity (MIC), two-fold serial dilution in Brain-Heart Infusion broth; assay type: cell-based; conditions: E. coli, overnight
# Experimental: (§1) The broth is inoculated with the bacterial culture, and with the test compound, and then it is incubated overnight. On the next day, the test is read visually. The minimum inhibitory concentration (MIC) is the lowest concentration of compound which prevents turbidity, i.e., which prevents growth of the microorganism. In vitro activities against certain pathogenic bacteria area shown in Table I. This in vitro activity makes the compound of value for topical applications, for example, in the form of creams and ointments, and for the sterilization of sickroom and hospital surfaces, equipment and the like. […] This in vivo activity makes this compound suitable for the control of bacterial infections caused by susceptible organisms, in mammals, including man, by both the oral and parenteral mode of administration.
# Staphylococcus aureus [2] = experiment: as above; assay type: cell-based; conditions: S. aureus, overnight
# Experimental: as §1
# Streptococcus pyogenes = experiment: as above; assay type: cell-based; conditions: S. pyogenes, overnight
# Experimental: as §1
# Staphylococcus aureus [3] = experiment: In vivo antibacterial activity, protection of mice against systemic infection (lethal intraperitoneal inoculum); conditions: infected mice, multiple dosing
# Escherichia coli [4] = experiment: as above; conditions: infected mice, multiple dosing
# [5] = test system: gram-positive and gram-negative bacteria; experiment: In vitro activity against gram-positive and gram-negative bacteria; assay type: cell-based
# Experimental: as §1
# [6] = test system: Staphylococcus aureus or Escherichia coli; experiment: In vivo antibacterial activity in infected mice (statement in words); conditions: SC and PO
# Experimental: as §1
# Isoelectric point = assay type: physicochemical; conditions: in water
SMILES,MIC (Escherichia coli [1]),MIC (Staphylococcus aureus [2]),MIC (Streptococcus pyogenes),Percentage protection S. Aureus (Staphylococcus aureus [3]; 6 mg./kg. SC),Percentage protection S. Aureus (Staphylococcus aureus [3]; 12 mg./kg. SC),Percentage protection S. Aureus (Staphylococcus aureus [3]; 25 mg./kg. SC),Percentage protection S. Aureus (Staphylococcus aureus [3]; 50 mg./kg. SC),Percentage protection E. coli (Escherichia coli [4]; 25 mg./kg. SC),Percentage protection E. coli (Escherichia coli [4]; 50 mg./kg. SC),Percentage protection E. coli (Escherichia coli [4]; 200 mg./kg. PO),activity against a wide variety of gram-positive and gram-negative bacteria [5],antibacterial activity in vivo [6],isoelectric point (Isoelectric point)
"CC1(C)S[C@@H]2[C@H](NC(=O)[C@H](N)c3ccc(O)cc3)C(=O)N2[C@H]1c1nn[nH]n1 [6-(D-2-Amino-2-[4-hydroxyphenyl]acetamido)-2,2-dimethyl-3-(5-tetrazolyl)penam]",780 ng/mL,6 ng/mL,1 ng/mL,50%,50%,70%,80%,80%,100%,100%,shows activity against a wide variety of gram-positive and gram-negative bacteria,active as an antibacterial agent in vivo,
"CC1(C)S[C@@H]2[C@H](N)C(=O)N2[C@H]1c1nn[nH]n1 [6-amino-2,2-dimethyl-3-(5-tetrazolyl)penam]",,,,,,,,,,,,,~4.1 pH
